pKd: −log10 of the molar value.
Key:
[1] = tested on: GFP-HIV protease fusion; experiment: GFP-HIV protease reporter assay in HEK293 T-REx cells; format: cell-based, human
[2] = molecular target: FKBP; conditions: read-out: KD for FKBP; cited from earlier work
[3] = molecular target: recombinant human FKBP12 (Homo sapiens, UniProt P62942); experiment: PAMPA partitioning with recombinant human FKBP12 on one side of the membrane; conditions: compared to control wells
recombinant human FKBP12, sequence (P62942 whole entry): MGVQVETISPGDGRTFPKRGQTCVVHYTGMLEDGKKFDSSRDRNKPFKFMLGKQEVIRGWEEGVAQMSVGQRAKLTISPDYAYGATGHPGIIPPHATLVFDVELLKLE

COc1ccc(S(=O)(=O)N(CC(C)C)C[C@@H](O)[C@H](Cc2ccccc2)NC(=O)O[C@H]2CCOC2)cc1 [4-OMe-amprenavir]
rescue of cell viability and GFP fluorescence ([1]; 5 μM, after doxycycline induction, fluorescence and light microscopy): could rescue cell viability and increase fluorescence
dependence of GFP fluorescence on mCherry-FKBP12 over-expression ([1]; transient mCherry-FKBP12 over-expression, microscopy): did not show this dependence on mCherry-FKBP12 expression

C=CC[C@@H]1/C=C(\C)C[C@H](C)C[C@H](OC)[C@H]2O[C@@](O)(C(=O)C(=O)N3CCCC[C@H]3C(=O)O[C@H](/C(C)=C/[C@@H]3CC[C@@H](O)[C@H](OC)C3)[C@H](C)[C@@H](O)CC1=O)[C@H](C)C[C@@H]2OC [FK506]
pKd [2]: ~9.22

CC(C)CN(C[C@@H](O)[C@H](Cc1ccccc1)NC(=O)O[C@H]1CCOC1)S(=O)(=O)c1ccc(N)cc1 [amprenavir]
enhancement of partitioning by FKBP12 [3]: unaffected by FKBP12
